Earlier results in patent US7491713B2, “CGRP receptor antagonists” (Merck + Co., Inc., priority 2004, dated 2009).
Ends that are not written are not given here.

Tests used:
[1] = tested on: marmoset; conditions: marmoset (Doods et al. 2000)
[2] = tested on: rats; conditions: prior administration (Williamson et al. 1997)
[3] = tested on: rat; conditions: rat (Escott et al. 1995)

Compound | effect on stimulation-induced increase of facial blood flow [1] | effect on stimulation-induced increase of middle meningeal artery diameter [2] | effect on stimulation-induced increase of facial blood flow [3]
NCCCC[C@H](NC(=O)[C@@H](Cc1cc(Br)c(O)c(Br)c1)NC(=O)N1CCC(N2Cc3ccccc3NC2=O)CC1)C(=O)N1CCN(c2ccncc2)CC1 [BIBN4096BS] | blocked |  | 
CGRP(8-37): a fragment of CGRP that lacks seven N-terminal amino acid residues; a peptide CGRP antagonist (VTHRLAGLLSRSGGVVKNNFVPTNVGSKAF; ends and bridges not checked; UniProt P06881 90-119, looked up, fragment) |  | blocked | inhibited
